Assay results from patent US6066340A, “Process for the preparation of microspheres containing biologically active components” (Fidia S.p.A., priority 1991, dated 2000).

Test: GM1 plasma levels after intramuscular administration
Assay type: in vivo, New Zealand rabbits
Settings: 2 mg/kg i.m.
Description: Microspheres of different dimensions of HYAFF-11 containing GM1 (10-40 μm) were prepared as described in Examples 29-30.
The ganglioside was administered by intramuscular route to groups of New Zealand rabbits (weighing 2.5 kg) at a concentration of 2 mg/kg.
At the set times, 2.5 ml of blood was withdrawn from the median artery of the ear. Each blood sample was incubated at 37° C. for one hour and then refrigerated overnight at 4° C. The samples were then centrifuged and the upper layer of serum was removed. 2 ml of tetrahydrofurane (THF) were added to 500 μl of serum for the determination of the GM1 content. The sample was stirred and centrifuged and the upper layer was stored. The precipitate was treated twice with […] of THF and 500 μl of phosphate buffer (50 mM) and centrifuged. The upper layers thus obtained were extracted with ethyl ether after separation of the aqueous phase, the organic phase was further extracted with water. The two aqueous phases were then mixed and freeze-dried. The freeze-dried product was redissolved in water and the GM1 content determined by the ELISA test.

In the case of monosialoganglioside GM1, the “Area under curve after i.m. administration of GM1” value (1st study) is reported as 127.74 µg/h/mL and the “Area under curve after i.m. administration of GM1” value (2nd study) is reported as 134.43 µg/h/mL.
